# Measured values reported in ChEMBL document CHEMBL1201862, “PubChem BioAssay data set” (2004).
#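 Exposure lasted 48 hours, with cells grown in 96-well plates and compounds tested at five concentrations. Abbreviation: GI50, concentration required for 50% inhibition of growth.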 Calls of active or inactive are those of the source. Rule as the data show it: active = GI50 up to about 1.1 µM and inactive = higher.
# Experiments:
# Test in all cases: NCI anticancer screen, dose series, 48 h
# 786-0 = test system: 786-0
# A498 = test system: A498
# A549 = test system: A549
# ACHN = test system: ACHN
# BT-549 = test system: BT-549
# CAKI-1 = test system: CAKI-1
# CCRF-CEM = test system: CCRF-CEM
# COLO 205 = test system: COLO 205
# EKVX = test system: EKVX
# HCC 2998 = test system: HCC 2998
# HCT-116 = test system: HCT-116
# HCT-15 = test system: HCT-15
# HL-60 = test system: HL-60
# HOP-62 = test system: HOP-62
# HOP-92 = test system: HOP-92
# HT-29 = test system: HT-29
# Hs-578T = test system: Hs-578T
# IGROV-1 = test system: IGROV-1
# K562 = test system: K562
# KM12 = test system: KM12
# LOX IMVI = test system: LOX IMVI
# M14 = test system: M14
# MCF7 = test system: MCF7
# MDA-MB-231 = test system: MDA-MB-231
# MDA-MB-435 = test system: MDA-MB-435
# MDA-N = test system: MDA-N
# MOLT-4 = test system: MOLT-4
# Malme-3M = test system: Malme-3M
# NCI-H226 = test system: NCI-H226
# NCI-H23 = test system: NCI-H23
# NCI-H522 = test system: NCI-H522
# NCI/ADR-RES = test system: NCI/ADR-RES
# OVCAR-3 = test system: OVCAR-3
# OVCAR-5 = test system: OVCAR-5
# OVCAR-8 = test system: OVCAR-8
# PC-3 = test system: PC-3
# RPMI-8226 = test system: RPMI-8226
# RXF 393 = test system: RXF 393
# SF-268 = test system: SF-268
# SF-295 = test system: SF-295
# SF-539 = test system: SF-539
# SK-MEL-2 = test system: SK-MEL-2
# SK-MEL-5 = test system: SK-MEL-5
# SK-OV-3 = test system: SK-OV-3
# SN12C = test system: SN12C
# SNB-19 = test system: SNB-19
# SNB-75 = test system: SNB-75
# SR = test system: SR
# SW-620 = test system: SW-620
# T47D = test system: T47D
# TK-10 = test system: TK-10
# U-251 = test system: U-251
# UACC-257 = test system: UACC-257
# UACC-62 = test system: UACC-62
# UO-31 = test system: UO-31
# DU-145 = test system: DU-145
# NCI-H460 = test system: NCI-H460
# OVCAR-4 = test system: OVCAR-4
# SK-MEL-28 = test system: SK-MEL-28
compound,measurement,setting,value
O=c1cc(N2CCOCC2)n2c(ccc3ccccc32)n1,GI50,786-0,> 100 µM (inactive)
same,GI50,A498,> 100 µM (inactive)
same,GI50,A549,> 100 µM (inactive)
same,GI50,ACHN,> 100 µM (inactive)
same,GI50,BT-549,> 100 µM (inactive)
same,GI50,CAKI-1,> 100 µM (inactive)
same,GI50,CCRF-CEM,> 100 µM (inactive)
same,GI50,COLO 205,> 100 µM (inactive)
same,GI50,EKVX,> 100 µM (inactive)
same,GI50,HCC 2998,> 100 µM (inactive)
same,GI50,HCT-116,> 100 µM (inactive)
same,GI50,HCT-15,> 100 µM
same,GI50,HL-60,> 100 µM (inactive)
same,GI50,HOP-62,> 100 µM (inactive)
same,GI50,HOP-92,> 100 µM (inactive)
same,GI50,HT-29,> 100 µM (inactive)
same,GI50,Hs-578T,> 100 µM (inactive)
same,GI50,IGROV-1,> 100 µM (inactive)
same,GI50,K562,> 100 µM (inactive)
same,GI50,KM12,> 100 µM (inactive)
same,GI50,LOX IMVI,> 100 µM (inactive)
same,GI50,M14,> 100 µM (inactive)
same,GI50,MCF7,> 100 µM (inactive)
same,GI50,MDA-MB-231,> 100 µM (inactive)
same,GI50,MDA-MB-435,> 100 µM (inactive)
same,GI50,MDA-N,31.7 µM (inactive)
same,GI50,MOLT-4,> 100 µM (inactive)
same,GI50,Malme-3M,> 100 µM (inactive)
same,GI50,NCI-H226,> 100 µM (inactive)
same,GI50,NCI-H23,> 100 µM (inactive)
same,GI50,NCI-H522,> 100 µM (inactive)
same,GI50,NCI/ADR-RES,> 100 µM (inactive)
same,GI50,OVCAR-3,> 100 µM (inactive)
same,GI50,OVCAR-5,> 100 µM (inactive)
same,GI50,OVCAR-8,> 100 µM (inactive)
same,GI50,PC-3,> 100 µM (inactive)
same,GI50,RPMI-8226,> 100 µM (inactive)
same,GI50,RXF 393,> 100 µM (inactive)
same,GI50,SF-268,> 100 µM (inactive)
same,GI50,SF-295,> 100 µM (inactive)
same,GI50,SF-539,> 100 µM (inactive)
same,GI50,SK-MEL-2,> 100 µM (inactive)
same,GI50,SK-MEL-5,> 100 µM (inactive)
same,GI50,SK-OV-3,> 100 µM (inactive)
same,GI50,SN12C,> 100 µM (inactive)
same,GI50,SNB-19,> 100 µM (inactive)
same,GI50,SNB-75,> 100 µM (inactive)
same,GI50,SR,> 100 µM (inactive)
same,GI50,SW-620,> 100 µM (inactive)
same,GI50,T47D,> 100 µM (inactive)
same,GI50,TK-10,> 100 µM (inactive)
same,GI50,U-251,> 100 µM (inactive)
same,GI50,UACC-257,> 100 µM (inactive)
same,GI50,UACC-62,> 100 µM (inactive)
same,GI50,UO-31,> 100 µM (inactive)
COC(=O)[C@@H](NC(=O)N(Cc1ccccc1)C[C@H](CC(C)C)NC(=O)[C@@H](NC(=O)OC(C)(C)C)C(C)C)C(C)C,GI50,786-0,> 100 µM (inactive)
same,GI50,A498,> 100 µM (inactive)
same,GI50,A549,> 100 µM (inactive)
same,GI50,ACHN,> 100 µM (inactive)
same,GI50,BT-549,> 100 µM (inactive)
same,GI50,CAKI-1,> 100 µM (inactive)
same,GI50,COLO 205,> 100 µM (inactive)
same,GI50,DU-145,> 100 µM (inactive)
same,GI50,EKVX,> 100 µM (inactive)
same,GI50,HCC 2998,> 100 µM (inactive)
same,GI50,HCT-116,> 100 µM (inactive)
same,GI50,HCT-15,> 100 µM
same,GI50,HL-60,> 100 µM (inactive)
same,GI50,HOP-62,> 100 µM (inactive)
same,GI50,HOP-92,> 100 µM (inactive)
same,GI50,HT-29,> 100 µM (inactive)
same,GI50,Hs-578T,88.1 µM (inactive)
same,GI50,K562,> 100 µM (inactive)
same,GI50,KM12,> 100 µM (inactive)
same,GI50,LOX IMVI,> 100 µM (inactive)
same,GI50,M14,> 100 µM (inactive)
same,GI50,MDA-MB-231,> 100 µM (inactive)
same,GI50,MDA-MB-435,> 100 µM (inactive)
same,GI50,MDA-N,> 100 µM (inactive)
same,GI50,MOLT-4,> 100 µM (inactive)
same,GI50,Malme-3M,> 100 µM (inactive)
same,GI50,NCI-H226,> 100 µM (inactive)
same,GI50,NCI-H23,> 100 µM (inactive)
same,GI50,NCI-H460,> 100 µM (inactive)
same,GI50,NCI-H522,> 100 µM (inactive)
same,GI50,NCI/ADR-RES,> 100 µM (inactive)
same,GI50,OVCAR-3,> 100 µM (inactive)
same,GI50,OVCAR-4,> 100 µM (inactive)
same,GI50,OVCAR-5,> 100 µM (inactive)
same,GI50,OVCAR-8,> 100 µM (inactive)
same,GI50,PC-3,> 100 µM (inactive)
same,GI50,RPMI-8226,> 100 µM (inactive)
same,GI50,RXF 393,> 100 µM (inactive)
same,GI50,SF-268,> 100 µM (inactive)
same,GI50,SF-295,> 100 µM (inactive)
same,GI50,SF-539,> 100 µM (inactive)
same,GI50,SK-MEL-28,> 100 µM (inactive)
same,GI50,SK-MEL-2,> 100 µM (inactive)
same,GI50,SK-MEL-5,> 100 µM (inactive)
same,GI50,SK-OV-3,> 100 µM (inactive)
same,GI50,SNB-19,> 100 µM (inactive)
same,GI50,SNB-75,33.7 µM (inactive)
same,GI50,SR,> 100 µM (inactive)
same,GI50,SW-620,> 100 µM (inactive)
same,GI50,T47D,> 100 µM (inactive)
same,GI50,TK-10,> 100 µM (inactive)
same,GI50,U-251,> 100 µM (inactive)
same,GI50,UACC-257,> 100 µM (inactive)
same,GI50,UACC-62,> 100 µM (inactive)
same,GI50,UO-31,> 100 µM (inactive)
